Assay results from US7247746B2, “Crystal forms of N-(trans-4-isopropylcyclohexylcarbonyl)-D-phenylalanine” (Novartis, AG, priority 2002, dated 2007).

Assay: solubility of nateglinide in crystallisation solvents
Format: physicochemical
Text: First solvents in which nateglinide is readily soluble, i.e., in amounts of at least 1% by weight at an ambient temperature, include lower alcohols, such as methanol, ethanol and isopropanol. Polar solvents such as acetone, tetrahydrofuran, dioxane and dichloromethane can also be effective when used as the first solvent. Second solvents in which nateglinide is only poorly soluble, i.e., in amounts of 0.01% by weight or less, include water, hexane, heptane and diethyl ether. Where a mixed solvent is employed as the first solvent, a mixture of ethanol and toluene or a mixture of methanol and ethyl acetate is effective preferably in combination with water as the second solvent, and more preferably with water containing from about 0.5 to about 3% by weight of hydroxypropylmethylcellulose. The amount of nateglinide in the solvent ranges preferably from 1 to 50% by weight of the resulting mixture. If the amount of nateglinide is more than 50% by weight then the slurry properties of the initial suspension are poor and it will be difficult to agitate the mixture and dissolve the solid. On the other hand, it is not efficient in terms of the volume of the solvent required to use less than 1% of nateglinide by weight. […]

amount in which nateglinide is readily soluble (first solvents) (at an ambient temperature, methanol, ethanol, isopropanol, also acetone, tetrahydrofuran, dioxane, dichloromethane): at least 1 % by weight
amount in which nateglinide is only poorly soluble (second solvents) (water, hexane, heptane and diethyl ether): ≤ 0.01 % by weight
SMILES: CC(C)[C@H]1CC[C@H](C(=O)N[C@H](Cc2ccccc2)C(=O)O)CC1 [nateglinide, N-(trans-4-isopropylcyclohexylcarbonyl)-D-phenylalanine]
